Assay results from ChEMBL document CHEMBL2021880, “An Invitation to Open Innovation in Malaria Drug Discovery: 47 Quality Starting Points from the TCAMS” (ACS Med Chem Lett, 2011).

How the values were obtained:
[1] = Clearance in human microsomes at 0.5 uM; type: ADME, Microsome
Plasmodium falciparum = assay: Antimalarial activity against Plasmodium falciparum 3D7 A infected in red blood cells assessed as inhibition of [3H]hypoxanthine incorporation after 24 hrs by scintillation counting; type: functional, organism-based
[2] = target: Voltage-gated inwardly rectifying potassium channel KCNH2 (Homo sapiens, UniProt Q12809); assay: Displacement of Cy3b-dofetilide from human ERG expressed in CHO cells by fluorescence polarization assay
[3] = Clearance in mouse microsomes at 0.5 uM; type: ADME, Microsome

Chain of Voltage-gated inwardly rectifying potassium channel KCNH2 (Q12809 whole entry): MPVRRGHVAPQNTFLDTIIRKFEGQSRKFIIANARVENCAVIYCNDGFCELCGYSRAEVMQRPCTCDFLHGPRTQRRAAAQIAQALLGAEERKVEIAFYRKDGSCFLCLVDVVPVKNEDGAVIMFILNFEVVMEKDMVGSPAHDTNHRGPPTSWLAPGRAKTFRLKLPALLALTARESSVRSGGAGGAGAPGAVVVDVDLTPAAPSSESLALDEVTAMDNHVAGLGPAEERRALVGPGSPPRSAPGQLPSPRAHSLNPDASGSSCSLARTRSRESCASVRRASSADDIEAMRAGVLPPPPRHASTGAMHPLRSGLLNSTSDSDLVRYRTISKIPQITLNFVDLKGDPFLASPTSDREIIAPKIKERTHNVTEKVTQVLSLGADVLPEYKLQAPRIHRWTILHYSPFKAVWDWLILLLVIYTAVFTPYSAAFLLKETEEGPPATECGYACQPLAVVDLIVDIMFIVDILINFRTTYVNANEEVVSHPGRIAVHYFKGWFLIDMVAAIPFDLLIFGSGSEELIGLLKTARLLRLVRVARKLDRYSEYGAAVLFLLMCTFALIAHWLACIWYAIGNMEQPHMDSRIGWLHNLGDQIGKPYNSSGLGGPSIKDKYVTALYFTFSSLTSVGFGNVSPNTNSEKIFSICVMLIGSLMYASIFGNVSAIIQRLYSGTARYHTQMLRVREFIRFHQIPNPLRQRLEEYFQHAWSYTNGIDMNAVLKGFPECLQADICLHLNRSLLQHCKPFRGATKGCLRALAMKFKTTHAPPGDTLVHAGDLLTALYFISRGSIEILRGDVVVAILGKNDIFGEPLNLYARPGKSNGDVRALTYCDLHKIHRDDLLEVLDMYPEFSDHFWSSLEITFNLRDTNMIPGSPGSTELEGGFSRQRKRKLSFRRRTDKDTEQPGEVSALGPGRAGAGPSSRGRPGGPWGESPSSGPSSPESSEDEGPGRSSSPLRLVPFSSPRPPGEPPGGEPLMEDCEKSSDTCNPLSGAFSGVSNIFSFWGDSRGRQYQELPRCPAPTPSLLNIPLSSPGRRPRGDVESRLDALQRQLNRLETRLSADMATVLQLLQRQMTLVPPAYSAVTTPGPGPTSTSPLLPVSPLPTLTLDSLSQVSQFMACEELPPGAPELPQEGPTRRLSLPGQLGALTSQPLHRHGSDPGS

| SMILES | CL [1] | IC50 (Plasmodium falciparum) | CL [3] | INH [2] | XC50 (Plasmodium falciparum) |
| --- | --- | --- | --- | --- | --- |
| CN(C)CCNC(=O)c1cc2c(-c3ccc(Cl)cc3)nn(C)c2s1 | 0.3 mL/min/g | 0.95 µM | 4 mL/min/g | 6.3 µM |  |
| Cc1cc(C(=O)NC2CCN(CC3(c4ccc(Cl)cc4)CCC3)CC2)on1 | 18.8 mL/min/g | 0.08 µM | 5.6 mL/min/g |  | 0.09 µM |

Further compounds by falling IC50 (Plasmodium falciparum), results first:

| CL [1] | IC50 (Plasmodium falciparum) | CL [3] | SMILES | INH [2] | XC50 (Plasmodium falciparum) |
| --- | --- | --- | --- | --- | --- |
| 12.7 mL/min/g | 0.1 µM | > 30 mL/min/g | CC(C)(C)c1cc(C(=O)N2CCN(c3ncccc3C(F)(F)F)CC2)n(Cc2ccccc2)n1 | > 50 µM |  |
| < 0.3 mL/min/g | 0.08 µM | < 0.3 mL/min/g | COc1cc2c(cc1C(F)(F)F)N(C(=O)Nc1cc(OC(F)(F)F)cc(-c3cccnc3)c1)CC2 | > 15 µM | 0.04 µM |
| < 0.3 mL/min/g | 0.03 µM | < 0.8 mL/min/g | O=C(Nc1cc(C(F)(F)F)ccc1-n1cncn1)C1(c2ccccc2)CC1 |  |  |
